Results: article PMC11887051, “Discovery of ONO-2920632 (VU6011887): A Highly Selective and CNS Penetrant TREK-2 (TWIK-Related K+ Channel 2) Preferring Activator In Vivo Tool Compound” (ACS Chemical Neuroscience, 2025)
Like-named read-outs stand apart in the source and are kept apart here.

How the values were obtained:
[1] = mouse brain homogenate binding; assay type: in vitro ADME; settings: read-out: mouse brain fu
[2] = mouse PO PK study (C57BL/6); assay type: in vivo; settings: 3 mg/kg PO; for concentration at 2 h: C57BL/6, mouse, po
Method: Plasma and brain tissue samples originating from in vivo studies were analyzed by electrospray ionization using an AB Sciex Q-TRAP 5500 (Foster City, CA) that was coupled to a Shimadzu LC-20AD pump (Columbia, MD) and a Leap Technologies CTC PAL auto-sampler (Carrboro, NC). Analytes were separated by gradient elution using a C18 column (3 x 50 mm, 3 mm; Fortis Technologies Ltd, Cheshire, UK) that was thermostated at 40 °C. HPLC mobile phase A was 0.1% formic acid in water (pH unadjusted); mobile phase B was 0.1% formic acid in acetonitrile (pH […]
min, with an isocratic hold for 0.5 min, before transitioning to 10% B over 0.05 min. The column was re-equilibrated (1 min) before the next sample injection. The total run time was 2.55 min, and the HPLC flow rate was 0.5 ml/min. The source temperature was set at 500 °C, and mass spectral analyses were performed using a Turbo-Ion spray source in positive ionization mode (5.0-kV spray voltage) and using multiple-reaction monitoring of transitions specific for the analytes. All data were analyzed using AB Sciex Analyst 1.5.1 software.
Brain plasma concentration ratio (Kp) was calculated by dividing brain concentration by plasma concentration for each animal. Unbound brain to unbound plasma concentration ratio (Kp,uu) is calculated using the following formula: Kp,uu = (Brain ng/g x brain fu)/(plasma ng/ml x plasma fu).
For determination of the plasma concentration-time profile, compounds were formulated in methyl cellulose and administered as a 3 mg/kg PO dose to male C57BL/6 mouse or SD rat (n = 2). For the same determination, compounds were formulated in HP-β-CD and administered as a 0.1 mg/kg IV dose to male beagle dog (n = 2).
Plasma samples originating from in vivo studies were analyzed by electrospray ionization using a Q-TRAP 5500 (AB Sciex) that was coupled to a Prominence UFLC XR (Shimadzu Corporation).
Analytes were separated by gradient elution using a Shim-pack XR-ODS II (2 x 75 mm, 2.2μm, Shimadzu Corporation) that was thermostated at 40 °C. HPLC mobile phase A was 5 mM ammonium acetate containing 0.2% formic acid in water (pH unadjusted); mobile phase B was […]
hold for 1.5 min, before transitioning to 10% B over 0.1 min. The column was re-equilibrated (0.9 min) before the next sample injection. The total run time was 4.0 min, and the HPLC flow rate was 0.5 ml/min. The source temperature was set at 600 °C, and mass spectral analyses were performed using a Turbo-Ion spray source in positive ionization mode and using multiple-reaction

TREK-1 = target: T1, TREK-1 (Homo sapiens, UniProt O95069); test: human 86Rb flux K2P selectivity panel; assay type: cell-based; settings: data is not shown
T1 sequence (O95069 1-426): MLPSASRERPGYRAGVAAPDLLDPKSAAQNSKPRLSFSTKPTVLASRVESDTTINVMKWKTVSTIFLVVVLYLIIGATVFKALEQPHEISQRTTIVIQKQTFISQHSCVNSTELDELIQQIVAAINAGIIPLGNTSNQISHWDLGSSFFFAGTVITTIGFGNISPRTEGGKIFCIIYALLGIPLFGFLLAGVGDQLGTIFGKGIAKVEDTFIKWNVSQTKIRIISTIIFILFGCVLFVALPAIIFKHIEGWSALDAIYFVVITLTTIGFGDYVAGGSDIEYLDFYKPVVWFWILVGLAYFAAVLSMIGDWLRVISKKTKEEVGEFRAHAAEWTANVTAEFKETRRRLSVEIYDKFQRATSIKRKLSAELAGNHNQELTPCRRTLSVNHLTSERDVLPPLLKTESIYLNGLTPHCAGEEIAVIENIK

Adrenergic β1 = Adrenergic β1 (Homo sapiens, UniProt P08588); test: Eurofins Lead Profiling radioligand binding; settings: title: 30 μM
Adrenergic β2 = Adrenergic β2 (Homo sapiens, UniProt P07550); test: Eurofins Lead Profiling radioligand binding; settings: title: 30 μM
Bradykinin B1 = Bradykinin B1 (Homo sapiens, UniProt P46663); test: Eurofins Lead Profiling radioligand binding; settings: title: 30 μM
Cannabinoid CB1 = Cannabinoid CB1 (Homo sapiens, UniProt P21554); test: Eurofins Lead Profiling radioligand binding; settings: title: 30 μM
Dopamine D3 = Dopamine D3 (Homo sapiens, UniProt P35462); test: Eurofins Lead Profiling radioligand binding; settings: title: 30 μM
Endothelin ETA = Endothelin ETA (Homo sapiens, UniProt P25101); test: Eurofins Lead Profiling radioligand binding; settings: title: 30 μM
Glucocorticoid = Glucocorticoid (Homo sapiens, UniProt P04150); test: Eurofins Lead Profiling radioligand binding; settings: title: 30 μM
Glutamate, Kainate = test: Eurofins Lead Profiling radioligand binding; design: species or system Rat; settings: title: 30 μM
Glutamate, NMDA, Glycine = Glutamate, NMDA, Glycine (Rattus norvegicus, UniProt P35439); test: Eurofins Lead Profiling radioligand binding; settings: title: 30 μM
[3] = tested on: Glutamate, NMDA, Phencyclidine; test: Eurofins Lead Profiling radioligand binding; design: species or system Rat; settings: title: 30 μM
[4] = target: Nicotinic Acetylcholine α1, Bungarotoxin (Homo sapiens, UniProt P02708+P07510+Q07001); test: Eurofins Lead Profiling radioligand binding; settings: read-out: % Inhibition at 10 µM
[5] = target: Platelet Activating Factor (PAF) (Homo sapiens, UniProt P25105); test: Eurofins Lead Profiling radioligand binding; settings: title: 30 μM
Potassium Channel [SKCA] = test: Eurofins Lead Profiling radioligand binding; design: species or system Rat; settings: title: 30 μM
Sodium Channel, Site 2 = test: Eurofins Lead Profiling radioligand binding; design: species or system Rat; settings: title: 30 μM
Thyroid Hormone = test: Eurofins Lead Profiling radioligand binding; design: species or system Rat; settings: title: 30 μM
Transporter, GABA = Transporter, GABA (Rattus norvegicus, UniProt P23978); test: Eurofins Lead Profiling radioligand binding; settings: title: 30 μM
hERG = target: T2, hERG (Homo sapiens, UniProt Q12809); test: hERG thallium flux assay; assay type: cell-based; settings: Tl+ flux assay
T2 construct: expressed in transfected cells; host or cells: HEK293
T2 sequence (Q12809 whole entry): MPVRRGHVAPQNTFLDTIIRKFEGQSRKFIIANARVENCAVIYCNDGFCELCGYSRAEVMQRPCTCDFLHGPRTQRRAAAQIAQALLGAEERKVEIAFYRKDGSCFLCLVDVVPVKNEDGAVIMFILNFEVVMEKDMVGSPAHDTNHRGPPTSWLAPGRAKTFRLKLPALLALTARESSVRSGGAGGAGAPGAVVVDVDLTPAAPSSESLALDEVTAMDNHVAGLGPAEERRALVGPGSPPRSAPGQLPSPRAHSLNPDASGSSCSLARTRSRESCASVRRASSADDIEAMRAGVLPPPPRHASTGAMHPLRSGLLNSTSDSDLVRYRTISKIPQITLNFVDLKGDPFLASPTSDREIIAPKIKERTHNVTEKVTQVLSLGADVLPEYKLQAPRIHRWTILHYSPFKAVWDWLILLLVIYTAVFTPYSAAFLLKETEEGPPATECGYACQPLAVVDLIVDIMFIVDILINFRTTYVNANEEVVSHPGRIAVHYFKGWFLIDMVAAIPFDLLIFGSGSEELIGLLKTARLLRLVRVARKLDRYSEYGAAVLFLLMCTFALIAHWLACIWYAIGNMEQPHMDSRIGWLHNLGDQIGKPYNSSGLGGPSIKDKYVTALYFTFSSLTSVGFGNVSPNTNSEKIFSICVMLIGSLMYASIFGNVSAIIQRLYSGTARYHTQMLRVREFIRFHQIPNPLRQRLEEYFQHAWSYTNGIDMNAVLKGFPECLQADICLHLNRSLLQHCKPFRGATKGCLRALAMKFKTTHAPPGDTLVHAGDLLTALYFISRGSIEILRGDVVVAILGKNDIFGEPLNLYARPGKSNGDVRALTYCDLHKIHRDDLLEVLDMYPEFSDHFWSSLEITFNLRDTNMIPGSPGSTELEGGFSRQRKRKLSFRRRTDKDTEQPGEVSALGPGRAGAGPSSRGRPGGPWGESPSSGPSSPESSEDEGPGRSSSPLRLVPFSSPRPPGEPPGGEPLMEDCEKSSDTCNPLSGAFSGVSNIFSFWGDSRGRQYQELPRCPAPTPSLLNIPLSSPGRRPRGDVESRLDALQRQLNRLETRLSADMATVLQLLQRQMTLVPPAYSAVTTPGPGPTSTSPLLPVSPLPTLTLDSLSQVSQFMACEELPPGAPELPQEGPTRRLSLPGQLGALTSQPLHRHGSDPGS

Platelet Activating Factor (PAF), sequence (P25105 whole entry): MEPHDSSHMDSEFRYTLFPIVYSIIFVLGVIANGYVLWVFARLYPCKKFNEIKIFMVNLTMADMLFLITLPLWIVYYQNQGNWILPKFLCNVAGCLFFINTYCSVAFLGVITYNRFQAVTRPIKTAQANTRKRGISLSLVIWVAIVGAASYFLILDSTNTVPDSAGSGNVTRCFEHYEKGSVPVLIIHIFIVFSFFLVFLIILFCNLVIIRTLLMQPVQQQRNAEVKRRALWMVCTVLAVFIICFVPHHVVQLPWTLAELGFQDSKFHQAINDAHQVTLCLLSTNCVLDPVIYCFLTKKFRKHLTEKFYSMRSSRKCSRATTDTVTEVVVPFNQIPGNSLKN
Bradykinin B1, sequence (P46663 whole entry): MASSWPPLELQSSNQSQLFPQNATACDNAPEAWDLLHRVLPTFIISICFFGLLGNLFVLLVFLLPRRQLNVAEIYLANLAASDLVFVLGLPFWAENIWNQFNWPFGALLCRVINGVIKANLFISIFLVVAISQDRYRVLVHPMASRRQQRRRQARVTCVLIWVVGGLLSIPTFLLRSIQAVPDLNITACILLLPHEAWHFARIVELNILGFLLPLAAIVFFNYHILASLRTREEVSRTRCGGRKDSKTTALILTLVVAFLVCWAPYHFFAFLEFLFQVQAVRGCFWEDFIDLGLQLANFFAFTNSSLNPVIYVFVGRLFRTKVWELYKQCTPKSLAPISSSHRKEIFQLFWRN
Adrenergic β1, sequence (P08588 whole entry): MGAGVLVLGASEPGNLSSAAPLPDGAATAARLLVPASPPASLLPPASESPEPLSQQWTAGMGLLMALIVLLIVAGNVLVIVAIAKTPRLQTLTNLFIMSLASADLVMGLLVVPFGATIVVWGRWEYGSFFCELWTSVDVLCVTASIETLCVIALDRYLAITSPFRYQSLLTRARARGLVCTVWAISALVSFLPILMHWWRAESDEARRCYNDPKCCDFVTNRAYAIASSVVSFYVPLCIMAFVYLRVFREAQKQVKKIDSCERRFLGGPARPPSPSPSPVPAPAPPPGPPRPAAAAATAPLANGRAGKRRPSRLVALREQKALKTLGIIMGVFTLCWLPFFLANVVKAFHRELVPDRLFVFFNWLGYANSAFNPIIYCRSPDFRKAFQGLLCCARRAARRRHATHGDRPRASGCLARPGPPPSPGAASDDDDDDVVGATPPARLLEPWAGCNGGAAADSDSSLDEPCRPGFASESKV
Cannabinoid CB1, sequence (P21554 whole entry): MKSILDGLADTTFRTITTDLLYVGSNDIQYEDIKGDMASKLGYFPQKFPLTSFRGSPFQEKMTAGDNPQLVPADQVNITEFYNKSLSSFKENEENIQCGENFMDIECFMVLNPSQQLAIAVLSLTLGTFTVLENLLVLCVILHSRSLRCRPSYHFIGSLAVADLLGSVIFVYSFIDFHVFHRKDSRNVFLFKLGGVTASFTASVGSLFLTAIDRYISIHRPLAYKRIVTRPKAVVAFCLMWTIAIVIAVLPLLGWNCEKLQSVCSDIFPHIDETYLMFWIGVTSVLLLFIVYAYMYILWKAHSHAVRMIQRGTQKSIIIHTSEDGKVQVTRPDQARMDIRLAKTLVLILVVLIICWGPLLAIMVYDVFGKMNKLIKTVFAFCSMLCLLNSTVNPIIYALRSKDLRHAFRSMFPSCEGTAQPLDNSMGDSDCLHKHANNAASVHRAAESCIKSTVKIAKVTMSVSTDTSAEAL
Glutamate, NMDA, Glycine, sequence (P35439 394-800 limits assumed): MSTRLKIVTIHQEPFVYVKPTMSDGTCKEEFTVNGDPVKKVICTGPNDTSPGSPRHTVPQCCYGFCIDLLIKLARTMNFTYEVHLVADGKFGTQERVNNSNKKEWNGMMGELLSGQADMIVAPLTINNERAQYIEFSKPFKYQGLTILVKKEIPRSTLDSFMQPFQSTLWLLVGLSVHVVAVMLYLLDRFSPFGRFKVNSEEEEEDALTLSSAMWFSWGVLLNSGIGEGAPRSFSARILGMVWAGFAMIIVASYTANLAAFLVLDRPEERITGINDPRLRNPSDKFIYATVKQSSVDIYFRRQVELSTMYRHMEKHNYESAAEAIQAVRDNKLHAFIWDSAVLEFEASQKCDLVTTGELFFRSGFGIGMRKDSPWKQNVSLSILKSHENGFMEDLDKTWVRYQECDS
Dopamine D3, sequence (P35462 whole entry): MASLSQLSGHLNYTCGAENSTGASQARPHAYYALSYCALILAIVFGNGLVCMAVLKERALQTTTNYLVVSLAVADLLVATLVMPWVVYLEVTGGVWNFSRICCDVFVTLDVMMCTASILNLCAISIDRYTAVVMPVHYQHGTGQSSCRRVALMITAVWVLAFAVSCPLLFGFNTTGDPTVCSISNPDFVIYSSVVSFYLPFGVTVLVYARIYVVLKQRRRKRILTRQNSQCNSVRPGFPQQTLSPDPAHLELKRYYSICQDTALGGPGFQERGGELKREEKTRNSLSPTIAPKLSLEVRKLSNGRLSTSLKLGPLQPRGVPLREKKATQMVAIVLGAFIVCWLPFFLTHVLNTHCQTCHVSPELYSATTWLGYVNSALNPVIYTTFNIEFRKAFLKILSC
Adrenergic β2, sequence (P07550 whole entry): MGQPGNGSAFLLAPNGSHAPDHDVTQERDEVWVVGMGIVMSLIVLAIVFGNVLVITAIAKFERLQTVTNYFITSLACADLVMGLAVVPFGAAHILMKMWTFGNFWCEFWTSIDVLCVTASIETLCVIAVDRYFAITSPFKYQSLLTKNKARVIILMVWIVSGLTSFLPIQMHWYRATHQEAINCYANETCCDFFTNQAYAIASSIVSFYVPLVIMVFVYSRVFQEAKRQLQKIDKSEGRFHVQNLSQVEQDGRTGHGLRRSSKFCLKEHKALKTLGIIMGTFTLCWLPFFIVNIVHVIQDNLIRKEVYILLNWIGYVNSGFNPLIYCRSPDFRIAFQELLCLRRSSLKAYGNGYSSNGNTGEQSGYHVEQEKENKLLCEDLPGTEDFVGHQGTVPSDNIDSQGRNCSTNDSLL

Q: Which results are given for `O=C(NCc1ccc(OC(F)(F)F)cc1F)c1ccc2ncnn2c1` [Compound 19b]?
A: fraction unbound at 6 h, 1 µM [1]: 0.28; total brain concentration ([2]; 2 h, 3 mg/kg): ~3 µM; concentration at 2 h ([2]; male, CSF, 3 mg/kg, 2 h, read-out: CSF level): 220 nM; concentration at 2 h ([2]; male, brain, 3 mg/kg, 2 h, read-out: free brain level): 920 nM; concentration at 2 h ([2]; male, brain, 3 mg/kg, 2 h, read-out: total brain concentration): 3200 nM; Cmax ([2]; male, plasma, C57BL/6 mice): 10500 nM; Tmax ([2]; male, plasma, C57BL/6 mice): 3.8 h; half-life ([2]; male, plasma, C57BL/6 mice): 19 h; activity at TREK-1 in 86Rb flux panel (TREK-1): micromolar activity; inhibition (Adrenergic β1): 9%; inhibition (Adrenergic β2): 2%; inhibition (Bradykinin B1): -12%; inhibition (Cannabinoid CB1): 17%; inhibition (Dopamine D3): 13%; inhibition (Endothelin ETA): -3%; inhibition (Glucocorticoid): 7%; % Inhibition at 10 µM (Glutamate, Kainate): 13%; inhibition (Glutamate, NMDA, Glycine): -1%; % Inhibition at 10 µM [3]: 0%; inhibition at 10 µM [4]: 20%; inhibition [5]: 12%; % Inhibition at 10 µM (Potassium Channel [SKCA]): 4%; % Inhibition at 10 µM (Sodium Channel, Site 2): 15%; % Inhibition at 10 µM (Thyroid Hormone): 9%; inhibition (Transporter, GABA): -6%

Q: With `O=C(NCc1ccc(OC(F)(F)F)cc1Cl)c1ccc2nncn2c1` [Compound 20] as the molecule, how does the IC50 (hERG) read?
A: > 30 µM
